Measured values: patent US20090069230A1, “GDNF-DERIVED PEPTIDES” (The Research Foundation of State University of New York, priority 2007, published 2009)

Test system: C6 glial cells
Test: Ca2+ mobilization in GDNF peptide-treated C6 glial cells (Calcium Crimson-AM fluorescence)
Format: cell-based
Details: for change in Ca2+ mobilization relative to control samples: external Ca2+ containing buffer, FIG. 6; for change in Ca2+ mobilization relative to control samples / change in fluorescence relative to the control sample: peptide 1 7.0 μM, peptide 2 2.3 μM, peptide 3 0.8 μM; for change in fluorescence relative to the control sample: external Ca2+ free buffer, FIG. 5
Method: We evaluated the ability of the GDNF peptides to activate G-protein associated transmembrane receptors. C6 glial cells were incubated with GDNF peptides, either singly or in combination, and calcium mobilization was monitored as a index of receptor activation.
GDNF peptides were custom synthesized via automated solid-phase methods using FMOC chemistry, HPLC purified, and characterized at the Small Peptide Synthesis Resource of the KECK Facility at Yale University. C6 glial cells were cultured to 80% confluency in the presence of GDNF peptides and loaded with the Ca^2+-sensitive fluorescent indicator dye, Calcium Crimson-AM (5 μM dye in Me2SO) at 37° C. for 20 min. Approximately 10^3 cells were then transferred into a quartz cuvette and the change in intracellular fluorescence was monitored in real time using an ISI Fluorescence spectrophotometer with an excitation wavelength of 590 nm. Emissions were monitored at 615 nm. An increase in fluorescence units was indicative of a rise in internal calcium.
C6 glial cells were cultured as above and incubated in increasing concentrations (0.8 μM; 1.6 μM; 2.4 μM; 3.2 μM and 4.0 μM) of GDNF-derived peptide (FPLPA (SEQ ID NO:4)). Fluorescence was measured according to the method in Example 3.
C6 glial cells were cultured as above and incubated in increasing concentrations (7.0 μM; 14 μM; 21 μM; 28 μM and 35 μM) of GDNF-derived peptide (PPEAPAEDRSL (SEQ ID NO:5)). Fluorescence was measured according to the method in Example 3.
C6 glial cells were cultured as above except that no Ca^2+ was present in the media. Cells were incubated with GDNF-derived peptides according to the experimental design indicated in Table 2 and the combinations in FIG. 5. Fluorescence was measured according to the method in Example 3.
C6 glial cells were cultured according to the method in Example 3. Cells were incubated with GDNF-derived peptides according to the experimental design indicated in Table 2 and the combinations in FIG. 6. Fluorescence was measured according to the method in Example 3.

Row | Substance | change in Ca2+ mobilization relative to control samples | change in fluorescence relative to the control sample | Ca2+ mobilization (fluorescence), dose response (FPLPA at 0.8, 1.6, 2.4, 3.2 and 4.0 μM, FIG. 3) | Ca2+ mobilization (fluorescence), dose response (PPEAPAEDRSL at 7.0, 14, 21, 28 and 35 μM, FIG. 4)
1 | ERNRQAAAANPENSRGK (listed as Homo sapiens) [GDNF-derived peptide, 17-mer] | decrease in Ca^2+ mobilization | moderate increases |  | 
2 | FPLPA (listed as Homo sapiens) [GDNF-derived peptide, 5-mer] | decrease in Ca^2+ mobilization | moderate increases | dose-dependent increase in Ca^2+ mobilization at peptide concentrations up to 3.2 μM, followed by a decrease at 4.0 μM | 
3 | PPEAPAEDRSL (listed as Homo sapiens) [GDNF-derived peptide, 11-mer] | increase in Ca^2+ mobilization | moderate increases |  | dose-dependent increase in Ca^2+ mobilization
